# Results published in PubChem BioAssay (NCI).
# “And” between values parts separate entries of the source, which are not always exact repeats. Identical values can stand only once.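 The compound was tested at five concentrations on cells cultured in 96-well plates, with a 48-hour exposure period. GI50 marks 50% less growth. The concentration for full growth arrest is given as TGI.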
# Experiments:
# Experiment in all cases: growth of human tumour cells (NCI), 48 h
# [1] = tested on: ACHN renal
# [2] = tested on: SF-295 CNS
# [3] = tested on: OVCAR-3 ovarian
# [4] = tested on: SK-MEL-5 melanoma
# [5] = tested on: SK-MEL-2 melanoma
# [6] = tested on: MALME-3M melanoma
# [7] = tested on: HOP-92 NSCLC
# [8] = tested on: NCI-H23 lung
# [9] = tested on: COLO 205 colon
# [10] = tested on: SW-620 colon
Compound,GI50 [1] [µM],TGI [1],GI50 [2],TGI [2],GI50 [3] [µM],TGI [3],GI50 [4] [µM],TGI [4],GI50 [5] [µM],TGI [5],GI50 [6],TGI [6],GI50 [7] [µM],TGI [7] [µM],GI50 [8] [µM],TGI [8],GI50 [9] [µM],TGI [9],GI50 [10] [µM],TGI [10]
O=C(Nc1nc2ccc(C(F)(F)F)cc2s1)c1cc(Cl)ccc1O,0.894,> 100 µM,0.831 µM,3.16 µM,0.422,56 µM,0.234,0.684 µM,0.798,6.09 µM,0.626 µM,4.48 µM,0.116,0.489,0.367,9.53 µM,1.38,4 µM,0.878,36.3 µM
CCCN=C(N)NC#N,,> 100 µM,,> 100 µM,,> 100 µM,,> 100 µM,,> 100 µM,,> 100 µM,,> 100,,> 100 µM,,32.9 µM,,30.8 µM
N#Cc1c(NN)n(C2OC(CO)C(O)C2O)c2ncnc(N)c12 (stereo not given),0.0385,,0.344 µM,47.8 µM,0.028,0.299 µM,0.461,3.05 µM,0.282,0.946 µM,0.0858 µM,1.35 µM,0.142,1.43,0.218,2.47 µM,,0.0424 µM,0.0254,1.18 µM
O=C(CNc1ccc(Cl)cc1)Nc1ccc(-c2nc3ccccc3s2)cc1,5.81,12.6 µM,14.1 µM,28.8 µM,2.04,3.99 µM,2,5.42 µM,8.96,30.8 µM,6.06 µM,12.6 µM,1.91,5.17,2.9,8.8 µM,3.49,10.2 µM,2.15,4.73 µM
CCCCC(C(=O)C(=O)NC1C2CC3CC(C2)CC1C3)C(=O)C(C)C (stereo not given),,> 100 µM,,> 100 µM,,> 100 µM,,> 100 µM,,> 100 µM,,> 100 µM,,> 100,,> 100 µM,,> 100 µM,,> 100 µM
COc1ccc(-n2cc(-c3cc(OC)c(OC)c(OC)c3)c(C(=O)C(F)(F)F)c2C)cc1,54.6,> 100 µM,> 100 µM,> 100 µM,24.9,> 100 µM,7.33,> 100 µM,> 100,> 100 µM,> 100 µM,> 100 µM,2.39,21.5,8.53,> 100 µM,65.2,> 100 µM,> 100,> 100 µM
COC(=O)C1=C(O)c2cc(OC)c(OC)cc2C(c2ccc(OC)c(OC)c2)C1 (stereo not given),,> 100 µM,,> 100 µM,,> 100 µM,,> 100 µM,,> 100 µM,,> 100 µM,,> 100,,> 100 µM,,> 100 µM,,> 100 µM
NNC(=S)N/N=C(\CC1OC(=O)c2ccccc21)c1ccccc1O (stereo not given),,> 100 µM,,40.4 µM,,> 100 µM,,> 100 µM,,> 100 µM,,> 100 µM,,> 100,,> 100 µM,,> 100 µM,,> 100 µM
CCOC(=O)CCCn1c(SC)nc2[nH]cc(-c3ccccc3)c2c1=O,8.09,43.2 µM,11.6 µM,34.2 µM,16.8,42.6 µM,12.9,25.7 µM,21.6,45.8 µM,15.1 µM,42.1 µM,7.62,41.1,11.6,34.6 µM,24.2,56.1 µM,20.7,78.6 µM
CC(CCC=O)CCOCc1ccccc1 (stereo not given),,> 100 µM,,> 100 µM,,> 100 µM,,> 46.4 µM,,> 100 µM,,> 100 µM,,> 100,,> 100 µM,,> 100 µM,,> 100 µM
CCN1CCN(C(c2ccc(C(F)(F)F)cc2)c2ccc3cccnc3c2O)CC1 (stereo not given),3.04,11.2 µM,0.313 µM,4.39 µM,3.47,15.4 µM,2.35,7.83 µM,4.53,17.6 µM,3.72 µM,15.4 µM,3.62,25.3,2.35,14.9 µM,3.35,13.1 µM,4.42,19.9 µM
O=C(/C=C/c1ccccc1O)c1ccccc1O,,> 100 µM,,> 100 µM,,> 100 µM,,> 100 µM,,> 100 µM,,> 100 µM,,> 100,,> 100 µM,,> 100 µM,,> 100 µM
O=C(O)C1C2C=CC(O2)C1C(=O)NCc1ccccn1 (stereo not given),,> 100 µM,,> 100 µM,,> 100 µM,,> 100 µM,,> 100 µM,,> 100 µM,,> 100,,> 100 µM,,> 100 µM,,> 100 µM
O=C1c2cccc(NCCCNCCO)c2C(=O)c2cccc(NCCCNCCO)c21,,5.71 µM and 10.4 µM,6.32 µM and 2.35 µM,18.6 µM and 7.37 µM,,5.65 µM and 9.94 µM,,3.31 µM and 4.4 µM,,3.47 µM and 3.42 µM,2.06 µM and 4.18 µM,3.94 µM and 10.4 µM,,4.08,,6.08 µM and 4.38 µM,,2.67 µM and 3.78 µM,,3.41 µM and 7.57 µM
Clc1nc2ccccc2nc1CI,1.78,3.27 µM,18.9 µM,44.9 µM,5.1,9.66 µM,2.6,7.82 µM,5.43,19.4 µM,2.2 µM,4.52 µM,1.81,6.82,6.38,25.3 µM,2.17,4.06 µM,2.57,6.87 µM
CN(C)/C=N/c1nc2c(ncn2C2OC(CO)C(O)C2O)c(=O)[nH]1 (stereo not given),,> 100 µM,,> 100 µM,,> 100 µM,,> 100 µM,,> 100 µM,,> 100 µM,,> 100,,> 100 µM,,> 100 µM,,> 100 µM
